From patent publication US11332468B2, “Azaindole derivatives as Rho-kinase inhibitors” (CHIESI FARMACEUTICI S.p.A., priority 2017, dated 2022)

Experiments:
Rho kinase 2 (ROCK2) = Rho kinase 2 (ROCK2) (Homo sapiens, UniProt O75116); assay: In vitro Rho kinase inhibitory activity assay (ADP-Glo), ROCK2; format: biochemical; settings: Ki by Cheng-Prusoff from IC50; 10 μM ATP; range of activity
Procedure: (§1) The effectiveness of compounds of the invention to inhibit Rho kinase activity can be determined in a […] assay containing 40 mM Tris pH7.5, 20 mM MgC2 0.1 mg/ml BSA, 50 μM DTT and 2.5 μM peptide substrate (Myelin Basic Protein) using an ADP-Glo kit (Promega). Compounds were dissolved in DMSO such that the final concentration of DMSO was 1% in the assay. All reactions/incubations are performed at 25° C. Compound (2 ul) and either Rho kinase 1 or 2 (4 μl) were mixed and incubated for 30 mins. Reactions were initiated by addition of ATP (4 μl) such that the final concentration of ATP in the assay was 10 μM. After a 1 hour incubation 10 μl of ADP-Glo Reagent was added and after a further 45 minute incubation 20 ul of Kinase Detection Buffer was added and the mixture incubated for a further 30 minutes. The luminescent signal was measured on a luminometer. […] Compounds were tested in dose-response format and the inhibition of kinase activity was calculated at each concentration of compound. To determine the IC50 (concentration of compound required to inhibit 50% of the enzyme activity) data were fit to a plot of % inhibition vs Log10 compound concentration using a sigmoidal fit with a variable slope and fixing the maximum to 100% and the minimum to 0%. To determine the Ki values the Cheng-Prusoff equation was utilized (Ki=IC50/(1+[S]/Km)

Rho kinase 1 (ROCK1) = Rho kinase 1 (ROCK1) (Homo sapiens, UniProt Q13464); assay: In vitro Rho kinase inhibitory activity assay (ADP-Glo), ROCK1; format: biochemical; settings: Ki by Cheng-Prusoff from IC50; 10 μM ATP; range of activity
Sequence of Rho kinase 1 (ROCK1) (Q13464 whole entry): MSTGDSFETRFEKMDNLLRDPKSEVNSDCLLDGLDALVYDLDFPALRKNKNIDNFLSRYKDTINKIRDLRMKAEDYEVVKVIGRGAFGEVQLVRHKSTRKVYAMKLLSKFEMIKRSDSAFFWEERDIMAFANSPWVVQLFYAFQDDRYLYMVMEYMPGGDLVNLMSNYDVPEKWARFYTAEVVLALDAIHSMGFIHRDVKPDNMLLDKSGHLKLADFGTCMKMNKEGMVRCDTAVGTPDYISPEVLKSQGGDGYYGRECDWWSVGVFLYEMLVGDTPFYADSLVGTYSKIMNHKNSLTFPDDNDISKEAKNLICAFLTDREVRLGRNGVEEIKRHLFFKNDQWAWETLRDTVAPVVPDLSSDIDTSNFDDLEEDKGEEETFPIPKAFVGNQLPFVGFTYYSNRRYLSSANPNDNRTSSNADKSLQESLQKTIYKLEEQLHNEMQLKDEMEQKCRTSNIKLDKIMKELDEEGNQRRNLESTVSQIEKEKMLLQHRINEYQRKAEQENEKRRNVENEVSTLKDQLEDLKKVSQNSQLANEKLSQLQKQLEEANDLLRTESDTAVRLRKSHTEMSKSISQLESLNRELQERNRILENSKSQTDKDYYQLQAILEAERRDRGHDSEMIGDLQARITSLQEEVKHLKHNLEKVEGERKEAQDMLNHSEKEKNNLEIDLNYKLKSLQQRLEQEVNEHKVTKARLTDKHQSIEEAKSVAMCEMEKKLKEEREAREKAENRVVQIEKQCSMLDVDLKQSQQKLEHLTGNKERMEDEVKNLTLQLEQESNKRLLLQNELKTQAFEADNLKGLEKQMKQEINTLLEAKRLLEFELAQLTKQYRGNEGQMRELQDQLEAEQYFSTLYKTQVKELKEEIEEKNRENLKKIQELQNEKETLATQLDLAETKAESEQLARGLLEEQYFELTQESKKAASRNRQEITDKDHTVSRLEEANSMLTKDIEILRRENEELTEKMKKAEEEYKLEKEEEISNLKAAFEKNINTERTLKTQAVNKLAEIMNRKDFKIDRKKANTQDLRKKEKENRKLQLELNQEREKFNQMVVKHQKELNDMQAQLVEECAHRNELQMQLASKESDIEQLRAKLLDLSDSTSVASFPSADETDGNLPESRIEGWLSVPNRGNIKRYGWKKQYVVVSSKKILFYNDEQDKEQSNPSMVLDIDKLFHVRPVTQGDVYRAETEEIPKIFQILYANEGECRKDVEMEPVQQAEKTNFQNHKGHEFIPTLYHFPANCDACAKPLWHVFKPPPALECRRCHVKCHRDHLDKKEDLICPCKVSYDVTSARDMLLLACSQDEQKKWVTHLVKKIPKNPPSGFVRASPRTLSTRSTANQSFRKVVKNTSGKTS
Procedure: as §1

Sequence of Rho kinase 2 (ROCK2) (O75116 whole entry): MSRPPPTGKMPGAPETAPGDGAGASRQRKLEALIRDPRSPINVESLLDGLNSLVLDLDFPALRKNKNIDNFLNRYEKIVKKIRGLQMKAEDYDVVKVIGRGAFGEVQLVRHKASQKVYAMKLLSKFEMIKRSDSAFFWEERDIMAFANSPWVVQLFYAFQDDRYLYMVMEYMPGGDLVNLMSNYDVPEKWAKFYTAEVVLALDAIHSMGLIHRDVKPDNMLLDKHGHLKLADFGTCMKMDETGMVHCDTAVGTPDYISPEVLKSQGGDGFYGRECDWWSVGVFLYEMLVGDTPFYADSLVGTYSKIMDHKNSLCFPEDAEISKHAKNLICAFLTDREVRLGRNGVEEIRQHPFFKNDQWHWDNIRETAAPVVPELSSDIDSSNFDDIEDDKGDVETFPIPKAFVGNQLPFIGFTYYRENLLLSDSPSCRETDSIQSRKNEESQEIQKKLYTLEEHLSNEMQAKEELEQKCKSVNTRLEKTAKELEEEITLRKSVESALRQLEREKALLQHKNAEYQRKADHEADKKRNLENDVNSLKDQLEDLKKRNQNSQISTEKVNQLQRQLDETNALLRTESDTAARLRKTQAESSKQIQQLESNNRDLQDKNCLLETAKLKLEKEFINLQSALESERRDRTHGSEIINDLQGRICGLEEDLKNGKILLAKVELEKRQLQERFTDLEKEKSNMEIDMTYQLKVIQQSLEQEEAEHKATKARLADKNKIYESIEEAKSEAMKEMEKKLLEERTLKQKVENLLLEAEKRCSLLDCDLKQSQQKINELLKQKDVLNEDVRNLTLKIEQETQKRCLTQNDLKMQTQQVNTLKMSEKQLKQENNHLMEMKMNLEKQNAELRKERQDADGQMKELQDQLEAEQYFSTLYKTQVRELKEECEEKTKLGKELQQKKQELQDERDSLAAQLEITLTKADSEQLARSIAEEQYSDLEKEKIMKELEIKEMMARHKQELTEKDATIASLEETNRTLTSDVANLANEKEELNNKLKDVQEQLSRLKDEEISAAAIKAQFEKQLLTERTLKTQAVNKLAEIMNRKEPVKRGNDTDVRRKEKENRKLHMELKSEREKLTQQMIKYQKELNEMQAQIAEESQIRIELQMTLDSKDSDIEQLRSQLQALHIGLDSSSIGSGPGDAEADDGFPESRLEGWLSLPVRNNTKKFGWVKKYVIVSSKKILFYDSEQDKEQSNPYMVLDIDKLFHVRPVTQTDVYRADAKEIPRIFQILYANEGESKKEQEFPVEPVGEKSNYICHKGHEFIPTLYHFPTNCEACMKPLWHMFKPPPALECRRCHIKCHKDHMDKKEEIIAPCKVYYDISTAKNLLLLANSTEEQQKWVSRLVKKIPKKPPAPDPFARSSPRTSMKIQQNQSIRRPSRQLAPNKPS

Row | Ki (Rho kinase 2 (ROCK2)) [nM] | Ki (Rho kinase 1 (ROCK1)) [nM] | SMILES
1 | 5 to 50 | 5 to 50 | Cc1c[nH]c2nccc(Oc3ccc(CNCCO)cc3)c12 [Example 31, 2-((4-((3-methyl-1H-pyrrolo[2,3-b]pyridin-4-yl)oxy)benzyl)amino)ethanol]
2 | 5 to 50 | 5 to 50 | Cc1c[nH]c2nccc(Oc3ccc(CN4CCC5(CCNC5)C4)cc3)c12 (stereo not drawn) [Example 32, 4-(4-(2,7-diazaspiro[4.4]nonan-2-ylmethyl)phenoxy)-3-methyl-1H-pyrrolo[2,3-b]pyridine]
3 | 5 to 50 | > 50 | Cc1c[nH]c2nccc(Oc3ccc(CN4CCN(C)CC4)cc3)c12 [Example 33, 3-methyl-4-(4-((4-methylpiperazin-1-yl)methyl)phenoxy)-1H-pyrrolo[2,3-b]pyridine]
4 | < 5 | < 5 | N#Cc1c[nH]c2nccc(Oc3ccc4c(c3)CNCC4)c12 [Example 34, 4-((1,2,3,4-Tetrahydroisoquinolin-7-yl)oxy)-1H-pyrrolo[2,3-b]pyridine-3-carbonitrile]
5 | < 5 | 5 to 50 | NCc1cc(F)c(Oc2ccnc3[nH]ccc23)c(F)c1 [Example 35, (4-((1H-Pyrrolo[2,3-b]pyridin-4-yl)oxy)-3,5-difluorophenyl)methanamine]
6 | < 5 | < 5 | Cc1c[nH]c2nccc(Oc3ccc(C[C@H](N)CO)cc3F)c12 [Example 36, (S)-2-amino-3-(3-fluoro-4-((3-methyl-1H-pyrrolo[2,3-b]pyridin-4-yl)oxy)phenyl)propan-1-ol]
7 | < 5 | < 5 | Cc1c[nH]c2nccc(Oc3ccc(C[C@H](N)CO)cc3)c12 [Example 37, (S)-2-amino-3-(4-((3-methyl-1H-pyrrolo[2,3-b]pyridin-4-yl)oxy)phenyl)propan-1-ol]
8 | < 5 | 5 to 50 | Cc1c[nH]c2nccc(Oc3ccc(C(N)CO)cc3)c12 (stereo not drawn) [Example 38, 2-amino-2-(4-((3-methyl-1H-pyrrolo[2,3-b]pyridin-4-yl)oxy)phenyl)ethanol]
9 | < 5 | < 5 | Cc1c[nH]c2nccc(Oc3ccc4c(c3)CN[C@@H](CO)C4)c12 [Example 39, (R)-(7-((3-Methyl-1H-pyrrolo[2,3-b]pyridin-4-yl)oxy)-1,2,3,4-tetrahydroisoquinolin-3-yl)methanol]
